{
  "source": "ChEMBL document CHEMBL4052819",
  "about": "(2017)",
  "key": {"Klebsiella pneumoniae [1]": {"tested_on": "Klebsiella pneumoniae", "assay": "Potentiation of rifampicin-mediated antibacterial activity against Klebsiella pneumoniae ATCC 13883 assessed as decrease in rifampicin MIC at 1.56 to 12.5 ug/ml by broth dilution method relative to control", "type": "functional"}, "Klebsiella pneumoniae [2]": {"tested_on": "Klebsiella pneumoniae", "assay": "Potentiation of rifampicin-mediated antibacterial activity against Klebsiella pneumoniae ATCC 700603 assessed as decrease in rifampicin MIC at 1.56 to 12.5 ug/ml by broth dilution method relative to control", "type": "functional"}},
  "data": [
    {"compound": "CC[C@H](C)[C@@H](NC(=O)[C@@H](NC(=O)[C@H](CCC(=O)O)NC(=O)[C@H](Cc1ccccc1)NC(=O)[C@@H](CCN)NC(=O)[C@H](CCN)NC(=O)[C@H](CO)NC(=O)[C@@H](Cc1c[nH]c2ccccc12)NC(=O)[C@@H](CO)NC(=O)CNC(=O)[C@@H](CCN)NC(=O)[C@H](N)C(C)C)C(C)C)C(=O)N[C@@H](C)C(=O)O", "values": [
      {"measurement": "fold change (FC)", "setting": "Klebsiella pneumoniae [1]", "value": "256 - 512"},
      {"measurement": "fold change (FC)", "setting": "Klebsiella pneumoniae [2]", "value": "256 - 512"}
    ]}
  ]
}
